Assay results from patent publication US4013657A, “O-ethyl-S-n-propyl-O-[pyridaz-(6)-on-(3)-yl]-thionothiolphosphoric acid esters” (priority 1973, dated 1977).
Like-named read-outs stand apart in the source and are kept apart here.

Legend:
[1] = Toxicity test, albino rat/peroral; settings: in vivo, po; albino rat; peroral; evaluation after 7 days
Method: Test animal: Albino rat (Rattus norvegicus)
To produce a suitable preparation of active compound, 3 parts by weight of active compound were mixed with 2.8 parts by weight of highly disperse silica and 4.2 parts by weight of talc. Suspensions, which contained, in 1 ml of liquid, the amount of active compound to be adminstered per 100 g of animal weight, were prepared from the above active-compound concentrate, with addition of a little powdered vegetable gum, by trituration with water. The dosage was measured out volumetrically after weighing the test animals. It was administered orally by means of a steel knob-ended probe. The results were in each case evaluated at the end of the above-mentioned interval of time, calculated from the administration of the active compound.
The LD50 values (dose of active compound which kills 50% of the treated animals) was determined from the mortality values of the dose which were varied in geometrical progression, in the usual manner.
The active compounds and LD50 values can be seen from Table 5 which follows.

[2] = tested on: fly larvae (Lucilia cuprina); experiment: Test with parasitic fly larvae/Lucilia cuprina res.; type: in vivo; settings: after 24 hours, resistant larvae, read-out: Degree of destruction in %; for mortality at 10 ppm: active compound concentration 10 ppm; for mortality at 30 ppm: active compound concentration 30 ppm; for mortality at 100 ppm: active compound concentration 100 ppm
Method: Test with parasitic fly larvae
35 parts by weight of ethylene polyglycol monomethyl ether
35 parts by weight of nonylphenol polyglycol ether
To produce a suitable preparation of active compound, 30 parts by weight of the active substance in question were mixed with the stated amount of solvent which contained the above-mentioned proportion of emulsifier and the concentrate thus obtained was diluted with water to the desired concentration.
About 20 fly larvae (Lucilia cuprina) were introduced into a test tube which contained approximately 2 ml of horse muscle. 0.5 ml of the preparation of active compound was applied to this horse meat. After 24 hours, the degree of destruction in % was determined. 100% means that all the larvae had been killed and 0% means that no larvae had been killed.

[3] = tested on: vinegar flies (Drosophila melanogaster); experiment: Drosophila test; type: in vivo; settings: 24 h, read-out: Degree of destruction in % after 1 day; for mortality at 0.01 %: active compound concentration 0.01 %
Method: (§1) Solvent: 3 parts by weight of acetone
(§2) Emulsifier: 1 part by weight of alkylaryl polyglycol ether
To produce a suitable preparation of active compound, 1 part by weight of the active compound was mixed with the stated amount of solvent containing the stated amount of emulsifier, and the concentrate was diluted with water to the desired concentration.
1 ml of the preparation of the active compound was applied with a pipette to a filter paper disc of 7 cm diameter. The wet disc was placed over the orifice of a glass vessel containing 50 vinegar flies (Drosophila melanogaster) and covered with a glass plate.
After the specified periods of time, the destruction was determined in %. 100% means that all the flies were killed, and 0% means that no flies were killed.
The active compounds, the concentrations of the active compounds, the evaluation times and the degree of destruction can be seen from the following Table 1: […]

[4] = tested on: two-spotted spider mite (Tetranychus urticae); experiment: Tetranychus test (resistant); type: in vivo; settings: 48 h, after 2 days, resistant mites, read-out: Degree of destruction in % after 2 days; for mortality at 0.01 %: active compound concentration 0.01 %; for mortality at 0.1 %: active compound concentration 0.1 %
Method: Tetranychus test (resistant)
as §1, §2
(§3) To produce a suitable preparation of active compound, 1 part by weight of the active compound was mixed with the stated amount of solvent containing the stated amount of emulsifier and the concentrate was diluted with water to the desired concentration.
These bean plants were heavily infested with the two-spotted spider mite (Tetranychus urticae) in all stages of development.
After the specified periods of time, the effectiveness of the preparation of active compound was determined by counting the dead mites. The degree of destruction thus obtained was expressed as a percentage: 100% means that all the spider mites were killed whereas 0% means that none of the spider mites were killed.
The active compounds, the concentrations of the active compounds, the evaluation times and the results can be seen from the following Table 3: […]

[5] = tested on: caterpillars of the diamond-back moth (Plutella maculipennis); experiment: Plutella test; type: in vivo; settings: 72 h, read-out: Degree of destruction in % after 3 days; for mortality at 0.001 %: active compound concentration 0.001 %; for mortality at 0.01 %: active compound concentration 0.01 %
Method: as §1, §2, §3
Cabbage leaves (Brassica oleracea) were sprayed with the preparation of the active compound until dew moist and were then infested with caterpillars of the diamond-back moth (Plutella maculipennis).
After the specified periods of time, the degree of destruction was determined as a percentage: 100% means that all the caterpillars were killed, whereas 0% means that none of the caterpillars were killed.
The active compounds, the concentrations of the active compounds, the evaluation times and the results can be seen from the following Table 2.

warm-blooded animals = settings: prior-art compounds; cited from earlier work
insects and acarids = settings: prior-art compounds; cited from earlier work
[6] = active compound concentration 0.1 %, after 1 day
[7] = active compound concentration 0.1 %, after 3 days

CCCSP(=S)(OCC)Oc1ccc(=O)[nH]n1 (stereo not drawn) [Compound 1, O-ethyl-S-n-propyl-O-[pyridaz-(6)-on-(3)-yl]-thionothiolphosphoric acid ester]
LD50 at 168 h [1]: 100 to 250 mg/kg

CCCSP(=S)(OCC)Oc1ccc(=O)n(CCC#N)n1 (stereo not drawn) [Compound 2, O-ethyl-S-n-propyl-O-[1-β-cyanoethyl-pyridaz-(6)-on-(3)-yl]-thionothiolphosphoric acid ester]
mortality at 10 ppm [2]: 100%
mortality at 30 ppm [2]: 100%
mortality at 100 ppm [2]: 100%
LD50 at 168 h [1]: 250 to 500 mg/kg

CCCSP(=S)(OCC)Oc1ccc(=O)n(C)n1 (stereo not drawn) [Compound 3]
mortality at 0.01 % ([3]; after 1 day): 100%
mortality at 0.1 % [3, 6]: 100%
mortality at 0.01 % [4]: 70%
mortality at 0.1 % [4]: 100%
mortality at 10 ppm [2]: 100%
mortality at 30 ppm [2]: 100%
mortality at 100 ppm [2]: 100%
LD50 at 168 h [1]: 100 to 250 mg/kg

C=CCn1nc(OP(=S)(OCC)SCCC)ccc1=O (stereo not drawn) [Compound 6]
mortality at 0.01 % ([3]; after 1 day): 100%
mortality at 0.1 % [3, 6]: 100%
mortality at 0.01 % [4]: 55%
mortality at 0.1 % [4]: 100%
LD50 at 168 h [1]: ~500 mg/kg

C#CCn1nc(OP(=S)(OCC)SCCC)ccc1=O (stereo not drawn) [Compound 7]
mortality at 0.01 % ([3]; after 1 day): 100%
mortality at 0.1 % [3, 6]: 100%
mortality at 0.01 % [4]: 45%
mortality at 0.1 % [4]: 100%
LD50 at 168 h [1]: ~250 mg/kg

CCCSP(=S)(OCC)Oc1ccc(=O)n(CCSCC)n1 (stereo not drawn) [Compound 8]
mortality at 0.01 % ([3]; after 1 day): 100%
mortality at 0.1 % [3, 6]: 100%
mortality at 0.01 % [4]: 80%
mortality at 0.1 % [4]: 100%
LD50 at 168 h [1]: 250 to 500 mg/kg

CCCSP(=S)(OCC)Oc1ccc(=O)n(CC(=O)OCC)n1 (stereo not drawn) [Compound 9]
LD50 at 168 h [1]: ~500 mg/kg

CCCSP(=S)(OCC)Oc1ccc(=O)n(CCC(C)=O)n1 (stereo not drawn) [Compound 10]
LD50 at 168 h [1]: 250 to 500 mg/kg

CCCSP(=S)(OCC)Oc1ccc(=O)n(CCC(=O)OC)n1 (stereo not drawn) [Compound 11]
LD50 at 168 h [1]: ~250 mg/kg

CCCSP(=S)(OCC)Oc1ccc(=O)n(-c2ccccc2)n1 (stereo not drawn) [Compound 13]
mortality at 0.01 % ([3]; after 1 day): 100%
mortality at 0.1 % [3, 6]: 100%
mortality at 0.001 % ([5]; after 3 days): 95%
mortality at 0.01 % ([5]; after 3 days): 100%
mortality at 0.1 % [5, 7]: 100%
mortality at 0.01 % [4]: 100%
mortality at 0.1 % [4]: 100%
LD50 at 168 h [1]: 250 to 500 mg/kg

CCCSP(=S)(OCC)Oc1ccc(=O)n(-c2cccc([N+](=O)[O-])c2)n1 (stereo not drawn) [Compound 14]
mortality at 0.001 % ([5]; after 3 days): 95%
mortality at 0.01 % ([5]; after 3 days): 100%
mortality at 0.1 % [5, 7]: 100%
LD50 at 168 h [1]: > 1000 mg/kg

CCCSP(=S)(OCC)Oc1ccc(=O)n(-c2ccc(C)cc2)n1 (stereo not drawn) [Compound 15]
mortality at 3 ppm ([2]; active compound concentration 3 ppm): > 50%
mortality at 10 ppm [2]: 100%
mortality at 30 ppm [2]: 100%
mortality at 100 ppm [2]: 100%
LD50 at 168 h [1]: ~500 mg/kg

CCCSP(=S)(OCC)Oc1ccc(=O)n(-c2ccc(Cl)cc2)n1 (stereo not drawn) [Compound 16]
LD50 at 168 h [1]: > 1000 mg/kg

CCCSP(=S)(OCC)Oc1ccc(=O)n(-c2cccc(Cl)c2)n1 (stereo not drawn) [Compound 17]
LD50 at 168 h [1]: > 1000 mg/kg

CCCSP(=S)(OCC)Oc1ccc(=O)n(C2CCS(=O)(=O)C2)n1 (stereo not drawn) [Compound 18]
LD50 at 168 h [1]: ~500 mg/kg

CCCSP(=S)(OCC)Oc1nn(CN2CCCC2)c(=O)c2ccccc12 (stereo not drawn) [Compound 19]
mortality at 0.01 % ([3]; after 1 day): 100%
mortality at 0.1 % [3, 6]: 100%
LD50 at 168 h [1]: 100 to 250 mg/kg

CCCSP(=S)(OCC)Oc1nn(CN2CCCCC2)c(=O)c2ccccc12 (stereo not drawn) [Compound 20]
mortality at 0.01 % [4]: 80%
mortality at 0.1 % [4]: 100%
LD50 at 168 h [1]: 250 to 500 mg/kg

CCCSP(=S)(OCC)Oc1n[nH]c(=O)c2ccccc12 (stereo not drawn) [Compound 21]
LD50 at 168 h [1]: ~500 mg/kg

CCOP(=S)(OCC)Oc1n[nH]c(=O)c2ccccc12 [Compound A, O,O-diethyl-O-[phthalaz-(8)-on-(3)-yl]-thionophosphoric acid ester]
mortality at 0.1 % [5, 7]: 0%
mortality at 0.1 % [4]: 0%
LD50 at 168 h [1]: ~25 mg/kg
toxicity to warm-blooded animals (warm-blooded animals): high toxicity to warm-blooded animals
insecticidal and acaricidal properties (insects and acarids): good insecticidal and acaricidal properties

CCOP(=S)(OCC)Oc1ccc(=O)[nH]n1 [Compound B, O,O-diethyl-O-[pyridaz-(6)-on-(3)-yl]-thionophosphoric acid ester]
mortality at 0.001 % ([5]; after 3 days): 0%
mortality at 0.01 % ([5]; after 3 days): 80%
mortality at 0.1 % [5, 7]: 100%
mortality at 0.1 % [4]: 20%
mortality at 30 ppm [2]: < 50%
mortality at 300 ppm ([2]; active compound concentration 300 ppm): 100%
LD50 at 168 h [1]: 2.5 to 5 mg/kg
toxicity to warm-blooded animals (warm-blooded animals): high toxicity to warm-blooded animals
insecticidal and acaricidal properties (insects and acarids): good insecticidal and acaricidal properties

CCOP(=S)(OCC)Oc1ccc(=O)n(C)n1 [Compound C, O,O-diethyl-O-[1-methyl-pyridaz-(6)-on-(3)-yl]-thionophosphoric acid ester]
LD50 at 168 h [1]: 5 to 10 mg/kg
toxicity to warm-blooded animals (warm-blooded animals): high toxicity to warm-blooded animals
insecticidal and acaricidal properties (insects and acarids): good insecticidal and acaricidal properties

CCOP(=S)(OCC)Oc1ccc(=O)n(CCC#N)n1 [Compound D, O,O-diethyl-O-[1-β-cyanoethyl-pyridaz-(6)-on-(3)-yl]-thionophosphoric acid ester]
LD50 at 168 h [1]: 10 to 25 mg/kg
toxicity to warm-blooded animals (warm-blooded animals): high toxicity to warm-blooded animals
insecticidal and acaricidal properties (insects and acarids): good insecticidal and acaricidal properties

CCOC(=O)Cn1nc(OP(=S)(OCC)OCC)ccc1=O [Compound E, O,O-diethyl-O-[1-ethoxycarbonylmethyl-pyridaz-(6)-on-(3)-yl]-thionophosphoric acid ester, reference compound]
mortality at 10 ppm [2]: > 50%
mortality at 100 ppm [2]: 100%
toxicity to warm-blooded animals (warm-blooded animals): high toxicity to warm-blooded animals
insecticidal and acaricidal properties (insects and acarids): good insecticidal and acaricidal properties

CCOP(=S)(OCC)Oc1ccc(=O)n(-c2ccc(C)cc2)n1 [Compound F, O,O-diethyl-[1-p-methylphenyl-pyridaz-(6)-on-(3)-yl]-thionophosphoric acid ester, reference compound]
mortality at 0.01 % [4]: 0%
mortality at 0.1 % [4]: 40%
LD50 at 168 h [1]: 50 to 100 mg/kg
toxicity to warm-blooded animals (warm-blooded animals): high toxicity to warm-blooded animals
insecticidal and acaricidal properties (insects and acarids): good insecticidal and acaricidal properties

CCOP(=S)(OCC)Oc1ccc(=O)n(CCC(C)=O)n1 [G]
mortality at 0.001 % ([5]; after 3 days): 0%
mortality at 0.01 % ([5]; after 3 days): 80%
mortality at 0.1 % [5]: 100%
LD50 at 168 h [1]: 10 to 25 mg/kg

CCOP(=S)(OCC)Oc1n[nH]c(=O)c2ccccc12 [known, reference compound]
mortality at 0.01 % ([3]; after 1 day): 0%
mortality at 0.1 % [3]: 100%
